# Reference: patent US20230122776A1, “ANTIVIRAL AGENT” (priority 2020, published 2023)
# Several values for one entry are separate records, joined by “and”; a condition that tells them apart may be missing. Equal entries are not always repeated. Where two headings read alike, the source gives them in different places.
# Legend:
# SARS-CoV-2 [1] = assay type: in vivo; conditions: 4 close contacts; inhaled taurolidine 0.5% 3 times or twice a day for 7 days
# SARS-CoV-2 [2] = assay type: in vivo
# [3] = target: blood coagulation factor X (Homo sapiens, UniProt P00742); conditions: from Reinmüller, Zentralblatt Chirurgie 124 (1999); cited from earlier work
# blood coagulation factor X, sequence (P00742 41-488): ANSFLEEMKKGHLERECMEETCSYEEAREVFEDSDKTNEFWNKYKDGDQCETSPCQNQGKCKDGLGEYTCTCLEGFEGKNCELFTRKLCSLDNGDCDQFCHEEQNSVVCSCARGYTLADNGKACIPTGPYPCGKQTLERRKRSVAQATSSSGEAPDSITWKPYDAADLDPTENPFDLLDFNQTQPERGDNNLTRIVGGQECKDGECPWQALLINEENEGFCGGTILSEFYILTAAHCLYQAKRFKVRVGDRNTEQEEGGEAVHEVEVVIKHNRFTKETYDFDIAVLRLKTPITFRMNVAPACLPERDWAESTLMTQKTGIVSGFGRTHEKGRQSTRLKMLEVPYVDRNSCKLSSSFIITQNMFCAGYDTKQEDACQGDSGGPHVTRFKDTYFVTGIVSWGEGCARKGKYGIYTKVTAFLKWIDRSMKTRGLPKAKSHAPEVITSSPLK
structure (smiles),measurement,setting,value
O=S1(=O)CCN(CN2CCS(=O)(=O)NC2)CN1 [taurolidine],POCT for SARS-CoV-2 under prophylaxis,SARS-CoV-2 [1],remained negative
same,disease symptoms under prophylaxis,SARS-CoV-2 [1],remained symptom-free
same,time interval from the start of treatment to the easing of the symptoms,"SARS-CoV-2 [2]; SARS-CoV-2 positive (POCT) participant, inhaled taurolidine 0.5% three times a day",≤ 48 h
same,time interval from the start of treatment to the easing of the symptoms,SARS-CoV-2 [2]; in vivo,96 h and 72 h
same,activity of the blood coagulation factor X,[3],inhibits the activity
